Data from patent US20240317739A1, “NOVEL UREA DERIVATIVE COMPOUND AS RON INHIBITOR” (LG CHEM, LTD., priority 2021, published 2024).

Key:
cMET = cMET (Homo sapiens, UniProt P08581); assay: Evaluation of inhibitory activity against MET (TR-FRET); format: biochemical; details: TR-FRET kinase assay, cMET protein
Experimental: In addition, in order to measure the enzyme activity inhibition for cMET, the evaluation was performed in the same manner as the enzyme activity inhibition measurement experiment for the RON.
(§1) Specifically, the compound was prepared to a concentration of 1 mM with 100% DMSO and was diluted 10 times in a stepwise manner through 3-fold dilution. 2 ul of the compound diluted in a stepwise manner was added to a 96-well-plate containing 48 ul of a 1× kinase reaction buffer (50 mM HEPES (pH 7.4), 0.05% BSA, 0.005% Tween-20, 1 mM DTT, 0.5 mM MnCl2, 20 mM MgCl2).
The cMET protein was diluted to a concentration of 263 nM with a cMET storage buffer (50 mM Tris-HCl (pH 7.5), 150 mM NaCl, 0.05% Brij35, 1 mM DTT, 10% Glycerol), and then diluted again to a concentration of 2 nM with a 1× kinase reaction buffer. As a substrate cocktail, a MET-specific substrate mixture (5 uM TK peptide, […]) at a concentration 2 times the final reaction concentration.
(§2) Thereafter, a 384-well-plate was prepared, and 2.5 μl of each of the diluted compounds of Examples was added to a corresponding well of experimental group wells, and 2.5 μl of a 4% DMSO solution was dispensed into high control wells and low control wells.
(§3) Thereafter, 2.5 μL of 2 nM cMET was dispensed into the high control wells and the experimental group wells, and 2.5 μL of a 1× kinase reaction buffer was added to the low control wells, and the RON and the reaction buffer were centrifuged at room temperature for 40 seconds at 1000 RPM, and then incubated at room temperature for 20 to 30 minutes. Then, 5 uL of a substrate cocktail (2×) was dispensed into all wells, centrifuged at room temperature for 40 seconds at 1000 RPM, and then incubated at room temperature for 60 minutes. Thereafter, 5 uL of 90 mM EDTA was added to all wells to terminate the reaction, and then incubated again at room temperature for 5 minutes. Thereafter, 5 uL of a 4× phosphotyrosine antibody (Perkin Elmer) containing europium was added to all wells, and then incubated at room temperature for 60 minutes. After the incubation, the 384-well-plate was read with a Vison plate reader. At this time, the excitation wavelength was 340 nm, and the emission wavelength was 620 nm and 665 nm. The 1050 value of the compound of each Example was derived using the GraphPd Prism7 program.

RON = RON (Homo sapiens, UniProt Q04912); assay: Evaluation of inhibitory activity against RON (TR-FRET); format: biochemical; details: TR-FRET kinase assay, RON protein
Experimental: In order to measure the inhibitory activity of each of the compounds of Examples against RON, the IC50 of each of the compounds was measured using a Time-Resolved Fluorescence Energy Transfer Chemistry (TR-FRET).
as §1, with “a 1×kinase” for “a 1× kinase”, “7.4), 0.01%” for “7.4), 0.05% BSA, 0.005%”, “Tween-20, 5” for “Tween-20, 1”, “mM Na3VO4, 2 mM EGTA, 10” for “mM MnCl2, 20”
The RON protein was diluted to a concentration of 49.3 nM with an RON storage buffer (50 mM Tris-HCl (pH 7.5), 150 mM NaCl, 0.5 mM EDTA, 0.02% Triton X-100), and then diluted again to a concentration of 0.4 nM with a 1×kinase reaction buffer. As a substrate cocktail, a RON-specific substrate mixture (40 uM ULight-labeled Poly GT, 100 nM ATP) at a concentration 2 times the final reaction concentration.
as §2
as §3, with “of 0.4” for “of 2”, “nM RON” for “nM cMET”, “of 30” for “of 90”, “The IC50” for “The 1050”

RON, sequence (Q04912 25-1400, species assumed): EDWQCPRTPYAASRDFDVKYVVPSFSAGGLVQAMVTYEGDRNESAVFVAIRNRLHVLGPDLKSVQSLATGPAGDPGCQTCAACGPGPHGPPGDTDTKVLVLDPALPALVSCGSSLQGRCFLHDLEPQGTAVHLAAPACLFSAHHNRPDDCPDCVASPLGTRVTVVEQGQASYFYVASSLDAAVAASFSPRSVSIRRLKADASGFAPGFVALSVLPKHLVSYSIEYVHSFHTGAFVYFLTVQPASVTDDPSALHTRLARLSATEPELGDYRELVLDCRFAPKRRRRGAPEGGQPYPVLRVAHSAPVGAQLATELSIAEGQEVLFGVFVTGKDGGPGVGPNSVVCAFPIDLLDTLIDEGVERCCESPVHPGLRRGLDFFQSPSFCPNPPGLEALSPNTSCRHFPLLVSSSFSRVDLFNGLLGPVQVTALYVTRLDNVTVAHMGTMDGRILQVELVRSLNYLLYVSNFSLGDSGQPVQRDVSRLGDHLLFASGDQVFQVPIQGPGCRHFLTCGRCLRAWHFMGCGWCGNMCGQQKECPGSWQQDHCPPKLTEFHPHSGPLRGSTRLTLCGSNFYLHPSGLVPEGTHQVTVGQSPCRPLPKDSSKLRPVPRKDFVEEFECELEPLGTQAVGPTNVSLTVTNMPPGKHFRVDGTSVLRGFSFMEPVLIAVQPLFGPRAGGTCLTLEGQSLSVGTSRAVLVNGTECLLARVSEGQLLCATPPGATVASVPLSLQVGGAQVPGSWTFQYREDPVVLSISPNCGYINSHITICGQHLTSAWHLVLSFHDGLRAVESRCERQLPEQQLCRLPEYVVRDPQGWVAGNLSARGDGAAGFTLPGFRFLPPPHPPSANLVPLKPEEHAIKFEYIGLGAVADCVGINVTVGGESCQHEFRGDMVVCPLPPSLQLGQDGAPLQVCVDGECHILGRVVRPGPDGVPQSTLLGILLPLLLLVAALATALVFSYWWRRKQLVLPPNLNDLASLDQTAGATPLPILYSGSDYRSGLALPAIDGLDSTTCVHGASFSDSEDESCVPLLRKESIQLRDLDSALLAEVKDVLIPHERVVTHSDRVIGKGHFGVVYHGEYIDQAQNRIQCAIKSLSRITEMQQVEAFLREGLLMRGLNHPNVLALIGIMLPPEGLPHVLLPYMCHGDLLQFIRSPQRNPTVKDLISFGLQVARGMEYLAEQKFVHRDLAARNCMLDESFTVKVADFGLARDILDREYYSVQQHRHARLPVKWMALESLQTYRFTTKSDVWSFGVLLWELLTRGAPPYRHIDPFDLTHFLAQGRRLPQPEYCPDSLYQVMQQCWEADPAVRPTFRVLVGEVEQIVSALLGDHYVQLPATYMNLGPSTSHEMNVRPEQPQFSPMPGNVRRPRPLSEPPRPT
cMET, sequence (P08581 25-1390): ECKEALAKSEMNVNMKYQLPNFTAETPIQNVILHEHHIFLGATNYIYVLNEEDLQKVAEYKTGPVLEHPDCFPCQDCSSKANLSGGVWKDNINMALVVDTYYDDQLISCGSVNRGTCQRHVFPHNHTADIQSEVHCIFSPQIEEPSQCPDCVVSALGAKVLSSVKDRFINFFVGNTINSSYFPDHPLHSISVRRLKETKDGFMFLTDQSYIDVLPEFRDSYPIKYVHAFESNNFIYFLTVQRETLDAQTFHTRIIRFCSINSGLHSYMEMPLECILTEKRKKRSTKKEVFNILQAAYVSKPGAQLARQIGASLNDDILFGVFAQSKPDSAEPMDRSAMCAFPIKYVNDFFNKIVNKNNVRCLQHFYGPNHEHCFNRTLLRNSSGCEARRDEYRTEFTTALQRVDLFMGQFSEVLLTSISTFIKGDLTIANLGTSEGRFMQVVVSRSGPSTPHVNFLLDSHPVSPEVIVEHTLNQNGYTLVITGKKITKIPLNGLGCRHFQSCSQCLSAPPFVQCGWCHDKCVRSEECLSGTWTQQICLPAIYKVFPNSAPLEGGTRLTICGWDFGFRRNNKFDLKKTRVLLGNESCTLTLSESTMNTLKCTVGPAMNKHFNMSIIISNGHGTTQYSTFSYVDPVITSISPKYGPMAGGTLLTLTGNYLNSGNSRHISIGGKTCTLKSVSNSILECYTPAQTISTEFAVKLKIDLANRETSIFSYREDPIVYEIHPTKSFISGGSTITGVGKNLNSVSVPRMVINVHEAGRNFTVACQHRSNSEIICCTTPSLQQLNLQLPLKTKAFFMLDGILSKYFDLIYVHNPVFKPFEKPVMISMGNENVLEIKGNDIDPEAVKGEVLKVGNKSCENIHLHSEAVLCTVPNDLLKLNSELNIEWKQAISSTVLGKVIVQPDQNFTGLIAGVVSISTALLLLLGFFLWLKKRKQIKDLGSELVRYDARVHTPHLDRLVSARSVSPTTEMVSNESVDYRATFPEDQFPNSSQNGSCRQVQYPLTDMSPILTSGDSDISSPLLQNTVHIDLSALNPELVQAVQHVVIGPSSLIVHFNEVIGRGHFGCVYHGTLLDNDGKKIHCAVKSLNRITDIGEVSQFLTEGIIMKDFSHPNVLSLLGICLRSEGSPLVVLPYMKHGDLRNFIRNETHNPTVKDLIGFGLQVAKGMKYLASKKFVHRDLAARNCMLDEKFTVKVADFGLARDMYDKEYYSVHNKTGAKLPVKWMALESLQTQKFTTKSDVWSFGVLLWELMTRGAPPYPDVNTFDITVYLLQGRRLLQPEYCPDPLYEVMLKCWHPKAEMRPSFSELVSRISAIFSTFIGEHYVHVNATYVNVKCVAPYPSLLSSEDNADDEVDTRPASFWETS

Structure (SMILES)	IC50 (cMET)	IC50 (RON)
CC(C)n1c(=O)[nH]c2nccc(Oc3ccc(NC(=O)c4cnn(-c5cc(Cl)ccn5)c4C(F)(F)F)cc3F)c21 [Example 15, 1-(4-chloropyridine-2-yl)-N-(3-fluoro-4-((1-isopropyl-2-oxo-2,3-dihydro-1H-imidazo[4,5-b]pyridine-7-yl)oxy)phenyl)-5-(trifluoromethyl)-1H-pyrazole-4-carboxamide]	> 5 µM	< 0.05 µM
CC(C)n1c(=O)[nH]c2nccc(Oc3ccc(NC(=O)c4cnn(-c5ccc(C(F)(F)F)cn5)c4C(F)(F)F)cc3F)c21 [Example 13, N-(3-fluoro-4-((1-isopropyl-2-oxo-2,3-dihydro-1H-imidazo[4,5-b]pyridine-7-yl)oxy)phenyl)-5-(trifluoromethyl)-1-(5-(trifluoromethyl)pyridine-2-yl)-1H-pyrazole-4-carboxamide]	> 5 µM	> 5 µM
CC(C)n1c(=O)[nH]c2nccc(Oc3ccc(NC(=O)c4cnn(-c5ncccc5F)c4C(F)(F)F)cc3F)c21 [Example 7, N-(3-fluoro-4-((1-isopropyl-2-oxo-2,3-dihydro-1H-imidazo[4,5-b]pyridine-7-yl)oxy)phenyl)-1-(3-fluoropyridine-2-yl)-5-(trifluoromethyl)-1H-pyrazole-4-carboxamide]	0.5 to 5 µM	< 0.05 µM
CC(C)n1c(=O)[nH]c2nccc(Oc3ccc(NC(=O)c4cnn(-c5ccc(F)cn5)c4C(F)(F)F)cc3F)c21 [Example 21, N-(3-fluoro-4-((1-isopropyl-2-oxo-2,3-dihydro-1H-imidazo[4,5-b]pyridine-7-yl)oxy)phenyl)-1-(5-fluoropyridine-2-yl)-5-(trifluoromethyl)-1H-pyrazole-4-carboxamide]	> 5 µM	< 0.05 µM
CC(C)n1c(=O)[nH]c2nccc(Oc3ccc(NC(=O)c4cnn(-c5ccccn5)c4C(F)(F)F)cc3F)c21 [Example 3, N-(3-fluoro-4-((1-isopropyl-2-oxo-2,3-dihydro-1H-imidazo[4,5-b]pyridine-7-yl)oxy)phenyl)-1-(pyridine-2-yl)-5-(trifluoromethyl)-1H-pyrazole-4-carboxamide]	> 5 µM	< 0.05 µM
CC(C)n1c(=O)[nH]c2nccc(Oc3ccc(NC(=O)c4cnn(-c5cccc(C(F)(F)F)n5)c4C(F)(F)F)cc3F)c21 [Example 22, N-(3-fluoro-4-((1-isopropyl-2-oxo-2,3-dihydro-1H-imidazo[4,5-b]pyridine-7-yl)oxy)phenyl)-5-(trifluoromethyl)-1-(6-(trifluoromethyl)pyridine-2-yl)-1H-pyrazole-4-carboxamide]	> 5 µM	0.05 to 0.5 µM
CC(C)n1c(=O)[nH]c2nccc(Oc3ccc(NC(=O)c4cnn(-c5ccncn5)c4C(F)(F)F)cc3F)c21 [Example 27, N-(3-fluoro-4-((1-isopropyl-2-oxo-2,3-dihydro-1H-imidazo[4,5-b]pyridine-7-yl)oxy)phenyl)-1-(pyrimidine-4-yl)-5-(trifluoromethyl)-1H-pyrazole-4-carboxamide]	0.5 to 5 µM	< 0.05 µM
CC(C)n1c(=O)[nH]c2nccc(Oc3ccc(NC(=O)c4cnn(-c5cc(Br)ccn5)c4C(F)(F)F)cc3F)c21 [Example 16, 1-(4-bromopyridine-2-yl)-N-(3-fluoro-4-((1-isopropyl-2-oxo-2,3-dihydro-1H-imidazo[4,5-b]pyridine-7-yl)oxy)phenyl)-5-(trifluoromethyl)-1H-pyrazole-4-carboxamide]	> 5 µM	< 0.05 µM
